Test results: patent US20250340591A1, “COMPOSITION FOR PREVENTING OR TREATING INFLAMMATORY BOWEL DISEASE CONTAINING NOVEL COMPOUND” (ANYGEN CO., LTD., priority 2021, published 2025)
Square brackets hold non-standard residues; d marks the D form. Peptide text beside a SMILES is read from it. * marks the point of attachment. His(Trt) = N[C@@H](Cc1cn(C(c2ccccc2)(c2ccccc2)c2ccccc2)cn1)C(=O)O; dHis(Trt) = N[C@H](Cc1cn(C(c2ccccc2)(c2ccccc2)c2ccccc2)cn1)C(=O)O; His(τ-CHPh2) = N[C@@H](Cc1cn(C(c2ccccc2)c2ccccc2)cn1)C(=O)O; Tyr(3-NO2) = N[C@@H](Cc1ccc(O)c([N+](=O)[O-])c1)C(=O)O; dPhe(4-Cl) = N[C@H](Cc1ccc(Cl)cc1)C(=O)O; dPhe(4-Me) = Cc1ccc(C[C@@H](N)C(=O)O)cc1; Palmitoyl = CCCCCCCCCCCCCCCC(=O)*; Myristoyl = CCCCCCCCCCCCCC(=O)*; Octanoyl = CCCCCCCC(=O)*; Orn = NCCC[C@H](N)C(=O)O

Target: T1, GPR39 (Homo sapiens, UniProt O43194)
T1 sequence (O43194 1-453): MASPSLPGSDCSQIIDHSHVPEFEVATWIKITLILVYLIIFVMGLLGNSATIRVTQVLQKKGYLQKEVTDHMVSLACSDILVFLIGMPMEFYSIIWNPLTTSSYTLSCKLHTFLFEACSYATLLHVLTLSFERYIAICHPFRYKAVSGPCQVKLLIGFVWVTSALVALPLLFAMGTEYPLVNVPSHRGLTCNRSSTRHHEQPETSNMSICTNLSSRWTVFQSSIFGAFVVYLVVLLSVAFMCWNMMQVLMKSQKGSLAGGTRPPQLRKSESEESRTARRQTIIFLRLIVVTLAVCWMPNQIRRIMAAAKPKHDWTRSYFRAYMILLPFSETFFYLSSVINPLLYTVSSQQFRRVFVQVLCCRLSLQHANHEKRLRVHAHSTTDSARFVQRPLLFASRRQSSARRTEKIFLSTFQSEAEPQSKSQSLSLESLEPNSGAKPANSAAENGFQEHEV
Experiment: luciferase assay system (SRE luciferase reporter gene, CV-1 cells expressing GPR39)
Format: cell-based
Set-up: expressed in transfected cells; host or cells: CV-1 fibroblast cell line (Korea Cell Line Bank), adenoviral transduction at 50 MOI

ECmax (−fold induction over basal)	Compound
20.9 ± 2.51 fold induction over basal	CCCCCCCC(=O)NCCCC[C@H](NC(=O)[C@H](N)Cc1cn(C(c2ccccc2)(c2ccccc2)c2ccccc2)cn1)C(=O)N[C@H](Cc1ccc(C)cc1)C(=O)N[C@@H](Cc1ccc(O)cc1)C(=O)O [HKFY-31, ((R)-2-((S)-2-((R)-2-amino-3-(1-trityl-1H-imidazol-4-yl)propanamido)-6-octanamidohexanamido)-3-(p-tolyl)propanoyl)-L-tyrosine] (H-[dHis(Trt)]K(Octanoyl)[dPhe(4-Me)]Y-OH)
20.4 ± 0.57 fold induction over basal	CCCCCCCCCCCCCCCC(=O)NCCCC[C@H](NC(=O)[C@@H](N)Cc1cn(C(c2ccccc2)(c2ccccc2)c2ccccc2)cn1)C(=O)N[C@@H](Cc1ccccc1)C(=O)N[C@@H](Cc1ccc(O)cc1)C(=O)O [HKFY-27, N6-palmitoyl-N2-(Nt-trityl-L-histidyl)-L-lysyl-L-phenylalanyl-L-tyrosine] (H-[His(Trt)]K(Palmitoyl)FY-OH)
13.4 ± 0.02 fold induction over basal	CCCCCCCC(=O)NCCCC[C@H](NC(=O)[C@@H](N)Cc1cn(C(c2ccccc2)(c2ccccc2)c2ccccc2)cn1)C(=O)N[C@@H](Cc1ccccc1)C(=O)N[C@@H](Cc1ccc(O)cc1)C(=O)N[C@@H](CO)C(=O)N[C@@H](Cc1c[nH]cn1)C(=O)N[C@@H](CCC(N)=O)C(=O)N[C@@H](CCC(N)=O)C(=O)N[C@@H](C)C(=O)N[C@@H](CCCNC(=N)N)C(=O)N[C@@H](Cc1ccccc1)C(N)=O [HKFY-40, (S)-2-((2S,5S,8S,11S,14S)-2-((1H-imidazol-4-yl)methyl)-14-((S)-2-amino-3-(1-trityl-1H-imidazol-4-yl)propanamido)-11-benzyl-8-(4-hydroxybenzyl)-5-(hydroxymethyl)-4,7,10,13,20-pentaoxo-3,6,9,12,19-pentaazaheptacosanamido)-N1-((S)-5-amino-1-(((S)-1-(((S)-1-(((S)-1-amino-1-oxo-3-phenylpropan-2-yl)amino)-5-guanidino-1-oxopentan-2-yl)amino)-1-oxopropan-2-yl)amino)-1,5-dioxopentan-2-yl)pentanediamide] (H-[His(Trt)]K(Octanoyl)FYSHQQARF-NH2)
19.82 ± 0.57 fold induction over basal	CCCCCCCCCCCCCC(=O)NCCCC[C@H](NC(=O)[C@@H](N)Cc1cn(C(c2ccccc2)(c2ccccc2)c2ccccc2)cn1)C(=O)N[C@@H](Cc1ccccc1)C(=O)N[C@@H](Cc1ccc(O)cc1)C(=O)O [HKFY-26, N6-tetradecanoyl-N2-(Nt-trityl-L-histidyl)-L-lysyl-L-phenylalanyl-L-tyrosine] (H-[His(Trt)]K(Myristoyl)FY-OH)
16 ± 1.7 fold induction over basal	CCCCCCCC(=O)NCCCC[C@H](NC(=O)[C@H](Cc1cn(C(c2ccccc2)(c2ccccc2)c2ccccc2)cn1)NC(=O)[C@H](CO)NC(=O)CN)C(=O)N[C@@H](Cc1ccccc1)C(=O)N[C@@H](Cc1ccc(O)cc1)C(=O)O [HKFY-37, N2-(Na-glycyl-L-seryl-Nt-trityl-L-histidyl)-N6-octanoyl-L-lysyl-L-phenylalanyl-L-tyrosine] (H-GS[His(Trt)]K(Octanoyl)FY-OH)
10.8 ± 1.41 fold induction over basal	CCCCCCCC(=O)NCCCC[C@H](NC(=O)[C@@H](N)Cc1cn(C(c2ccccc2)c2ccccc2)cn1)C(=O)N[C@H](Cc1ccc(C)cc1)C(=O)N[C@@H](Cc1ccc(O)c([N+](=O)[O-])c1)C(=O)O [HKFY-68, (S)-2-((R)-2-((S)-2-((S)-2-amino-3-(1-benzhydryl-1H-imidazol-4-yl)propanamido)-6-octanamidohexanamido)-3-(p-tolyl)propanamido)-3-(4-hydroxy-3-nitrophenyl)propanoic acid] (H-[His(τ-CHPh2)]K(Octanoyl)[dPhe(4-Me)][Tyr(3-NO2)]-OH)
21.3 ± 1.8 fold induction over basal	CCCCCCCC(=O)NCCCC[C@H](NC(=O)[C@@H](N)Cc1cn([C@H](c2ccccc2)c2ccc(C)cc2)cn1)C(=O)N[C@@H](Cc1ccccc1)C(=O)N[C@@H](Cc1ccc(O)cc1)C(=O)O [HKFY-22, N6-octanoyl-N2-(Nt-((R)-phenyl(p-tolyl)methyl)-L-histidyl)-L-lysyl-L-phenylalanyl-L-tyrosine]
15 ± 1.37 fold induction over basal	CCCCCCCC(=O)NCCCC[C@H](NC(=O)[C@@H](N)Cc1cn(C23CC4CC(CC(C4)C2)C3)cn1)C(=O)N[C@@H](Cc1ccccc1)C(=O)N[C@@H](Cc1ccc(O)cc1)C(=O)O [HKFY-23, N2-(Nt-(adamantan-1-yl)-L-histidyl)-N6-octanoyl-L-lysyl-L-phenylalanyl-L-tyrosine]
16.5 ± 0.02 fold induction over basal	CCCCCCCC(=O)NCCCC[C@H](NC(=O)[C@@H](N)Cc1cn(C(c2ccccc2)(c2ccccc2)c2ccccc2)cn1)C(=O)N[C@@H](Cc1ccccc1)C(=O)N[C@@H](Cc1ccc(O)cc1)C(=O)N[C@@H](CO)C(=O)N[C@@H](CC(=O)O)C(=O)N[C@@H](CCC(N)=O)C(=O)N[C@@H](CCC(N)=O)C(=O)N[C@@H](C)C(=O)N[C@@H](CCCNC(=N)N)C(=O)N[C@@H](Cc1ccccc1)C(N)=O [HKFY-38, (3S,6S,9S,12S,15S)-15-((S)-2-amino-3-(1-trityl-1H-imidazol-4-yl)propanamido)-12-benzyl-3-(((6S,9S,12S,15S)-1,18-diamino-6-(((S)-1-amino-1-oxo-3-phenylpropan-2-yl)carbamoyl)-12-(3-amino-3-oxopropyl)-1-imino-9-methyl-8,11,14,18-tetraoxo-2,7,10,13-tetraazaoctadecan-15-yl)carbamoyl)-9-(4-hydroxybenzyl)-6-(hydroxymethyl)-5,8,11,14,21-pentaoxo-4,7,10,13,20-pentaazaoctacosanoic acid] (H-[His(Trt)]K(Octanoyl)FYSDQQARF-NH2)
20 ± 0.57 fold induction over basal	CCCCCCCC(=O)NCCCC[C@H](NC(=O)[C@@H](N)Cc1cn(C(c2ccccc2)c2ccccc2)cn1)C(=O)N[C@@H](Cc1ccccc1)C(=O)N[C@@H](Cc1ccc(O)cc1)C(=O)O [HKFY-33, N2-(Nt-benzhydryl-L-histidyl)-N6-octanoyl-L-lysyl-L-phenylalanyl-L-tyrosine] (H-[His(τ-CHPh2)]K(Octanoyl)FY-OH)
20 ± 0.28 fold induction over basal	CCCCCCCC(=O)NCCCC[C@H](NC(=O)[C@@H](N)Cc1cn(C(c2ccccc2)(c2ccccc2)c2ccccc2)cn1)C(=O)N[C@@H](Cc1ccccc1)C(=O)N[C@@H](Cc1c[nH]c2ccccc12)C(=O)O [HKFY-46, N6-octanoyl-N2-(Nt-trityl-L-histidyl)-L-lysyl-L-phenylalanyl-L-tryptophan] (H-[His(Trt)]K(Octanoyl)FW-OH)
16.8 ± 2.5 fold induction over basal	CCCCCCCC(=O)NCCCC[C@H](N)C(=O)N[C@@H](Cc1cn(C(c2ccccc2)(c2ccccc2)c2ccccc2)cn1)C(=O)N[C@@H](Cc1ccccc1)C(=O)N[C@@H](Cc1ccc(O)cc1)C(=O)O [HKFY-55, Na-(N6-octanoyl-L-lysyl)-Nt-trityl-L-histidyl-L-phenylalanyl-L-tyrosine] (H-K(Octanoyl)[His(Trt)]FY-OH)
21 ± 2.52 fold induction over basal	CCCCCCCC(=O)NCCCC[C@H](NC(=O)[C@@H](N)Cc1cn(CCc2ccccc2)cn1)C(=O)N[C@@H](Cc1ccccc1)C(=O)N[C@@H](Cc1ccc(O)cc1)C(=O)O [HKFY-9, N6-octanoyl-N2-(Nt-phenethyl-L-histidyl)-L-lysyl-L-phenylalanyl-L-tyrosine]
20.9 ± 1.4 fold induction over basal	CCCCCCCC(=O)NCCCC[C@H](NC(=O)[C@H](N)Cc1cn(C(c2ccccc2)(c2ccccc2)c2ccccc2)cn1)C(=O)N[C@H](Cc1ccc(Cl)cc1)C(=O)N[C@H](Cc1ccc(O)cc1)C(=O)O [HKFY-14, ((R)-2-((S)-2-((R)-2-amino-3-(1-trityl-1H-imidazol-4-yl)propanamido)-6-octanamidohexanamido)-3-(4-chlorophenyl)propanoyl)-D-tyrosine] (H-[dHis(Trt)]K(Octanoyl)[dPhe(4-Cl)][dY]-OH)
21.5 ± 2.7 fold induction over basal	CCCCCCCC(=O)NCCCC[C@H](NC(=O)[C@@H](N)Cc1cn(C(c2ccccc2)c2ccc(F)cc2F)cn1)C(=O)N[C@H](Cc1ccc(C)cc1)C(=O)N[C@@H](Cc1ccc(O)cc1)C(=O)O (stereo partly drawn) [HKFY-32, ((2R)-2-((2S)-2-((2S)-2-amino-3-(1-((2,4-difluorophenyl)(phenyl)methyl)-1H-imidazol-4-yl)propanamido)-6-octanamidohexanamido)-3-(p-tolyl)propanoyl)-L-tyrosine]
16.4 ± 2.51 fold induction over basal	CCCCCCCC(=O)NCCC[C@H](NC(=O)[C@@H](N)Cc1cn(C(c2ccccc2)c2ccccc2)cn1)C(=O)N[C@H](Cc1ccc(C)cc1)C(=O)N[C@@H](Cc1ccc(O)cc1)C(=O)O [HKFY-71, ((R)-2-((S)-2-((S)-2-amino-3-(1-benzhydryl-1H-imidazol-4-yl)propanamido)-5-octanamidopentanamido)-3-(p-tolyl)propanoyl)-L-tyrosine] (H-[His(τ-CHPh2)][Orn](Octanoyl)[dPhe(4-Me)]Y-OH)
